Structures can show the parent of a compound that is named as a salt. Where two headings read alike, the source gives them in different places.
Columns and labels:
[1] = tested on: C33A cervical carcinoma cells; experiment: cells; assay type: cell-based; settings: C-33A, Cervix; ATP levels 72 h post-treatment compared to untreated cells; read-out: IC50 of Compound 1 tartrate
Description: (§1) […]. […] […]. The total dimethyl sulfoxide on the cells was 1%. […] […].
(§2) As depicted in Table 4, these compounds were efficient in decreasing cellular ATP levels in HI 299 and C33A cancer cell lines. Nevertheless, these compounds are believed to have utility in the in vivo methods of the invention, i.e., treatment and prevention of cancer and viral infections, respectively. It should be noted that, although this cell-based assay is believed to be indicative of anti-oncogenic activity in vivo, it is not the only useful assay for evaluating the anti-oncogenic activity of Triheterocyclic Compounds of the invention. In addition, the anti-viral and other biological activity of compounds of the invention can be determined and evaluated in other assay systems known to the skilled artisan.

[2] = tested on: H1299 human non-small cell lung cancer cells; experiment: Cell viability by cellular ATP levels (ViaLight), H1299 cells; assay type: cell-based; settings: H1299, NSCLC; ATP levels 72 h post-treatment compared to untreated cells; read-out: IC50 of Compound 1 tartrate
Description: as §1, §2

[3] = tested on: A549 human lung carcinoma cell line; settings: read-out: IC50 of Compound 1 tartrate; A549, NSCLC; ATP levels 72 h post-treatment compared to untreated cells
Protocol: (§3) The cells lines were plated in 96-well microtiter plates (PerkinElmer Life Sciences Inc, Boston, Mass., USA) at a confluency that allowed them to reach confluence after 4 days of growth. […] The total dimethyl sulfoxide on the cells was 1%. After 3 days of incubation the ATP levels in the cells were quantified using a luminescent ViaLight detection system (Bio-Whittaker, MD, USA).

[4] = tested on: ADR-RES human breast cancer cell line; settings: read-out: IC50 of Compound 1 tartrate; NCI/ADR-RES, Breast (Mutli-drug resistant); ATP levels 72 h post-treatment compared to untreated cells
Protocol: as §3

[5] = tested on: B16-F1 mouse melanoma cell line; settings: read-out: IC50 of Compound 1 tartrate; B16-F1, Murine Melanoma; ATP levels 72 h post-treatment compared to untreated cells
Protocol: as §3

[6] = tested on: H460 non-small cell lung cancer cell line; settings: read-out: IC50 of Compound 1 tartrate; H460, NSCLC; ATP levels 72 h post-treatment compared to untreated cells
Protocol: as §3

[7] = tested on: HMEC normal mammary epithelial cells
Protocol: as §3

[8] = tested on: MCF-7 human breast cancer cell line; settings: read-out: IC50 of Compound 1 tartrate; MCF-7, Breast; ATP levels 72 h post-treatment compared to untreated cells
Protocol: as §3

[9] = tested on: OVCAR-3 human ovarian carcinoma cell line; settings: read-out: IC50 of Compound 1 tartrate; OVCAR-3, Ovary; ATP levels 72 h post-treatment compared to untreated cells
Protocol: as §3

[10] = tested on: PC-3 human prostatic carcinoma cell line; settings: read-out: IC50 of Compound 1 tartrate; PC-3, Prostate; ATP levels 72 h post-treatment compared to untreated cells
Protocol: as §3

[11] = tested on: SW-480 human adenocarcinoma cell line; settings: read-out: IC50 of Compound 1 tartrate; SW-480, Colorectal; ATP levels 72 h post-treatment compared to untreated cells
Protocol: as §3

[12] = tested on: cancer cell lines H1299 and C33A, normal cell lines HMEC and MRC-5; settings: 0.5 μM, 72 hours after treatment; H1299 and C33A vs HMEC and MRC-5; FIG. 1
Protocol: as §3

[13] = tested on: C33A human cervical cancer cells; settings: for reduction in tumor growth compared to vehicle only: 4.5 mg/kg IV once a day for five days, C33A tumors in SCID mice, FIG. 3; for T/C value: 4.5 mg/kg IV once daily for five days
Protocol: The resultant mice are a model for a human having cervical cancer.
The C33A human cervical cancer cells were maintained in RPMI (Hyclone, Utah, USA) supplemented with 10% inactivated fetal bovine serum (Bio-Whittaker, MD, USA) and 1% penicillin-streptomycin-L-Glutamine (Gibco, N.Y., USA), under 5% CO2 at 37° C., and passaged twice a week. The cells were grown at a confluency lower than 70% and than collected with Trypsin (Bio-Whittaker, MD, USA). The cells were then centrifuged and washed twice using phosphate buffered saline solution (PBS) and resuspended in PBS at 2×10^6 cells per 100 μl.
C33A cells were injected subcutaneously into the flank of female CB17 SCID/SCID mice. Each mouse was inoculated with a suspension of 2×10^6 tumors cells per 150 μl on day zero.
Treatments started on day fourteen after C33A cells transplantation. […] The negative control group was treated with vehicle alone. […] The positive control group was treated once every 3 days for five times with cisplatin (Sigma, St. Louis, Mo., USA) at a dose of 4 mg/kg. Cisplatin was formulated in PBS on each day of the injection and was administered IP in an injection volume of 80 μl.
The mice were weighed and the tumors measured on day 13 and every 2 days after treatment commenced. Observation continued for 40 days after initial tumor implantation. The changes in body weight and in the calculated tumor volume were plotted.

[14] = assay type: in vivo, CB17 SCID/SCID mice; settings: 4.5 mg/kg IV once daily for five days, FIG. 2
Protocol: Treatments started on day fourteen after C33A cells transplantation. […]. The negative control group was treated with vehicle alone. […].
Observation continued for 40 days after initial tumor implantation.

[15] = Shelf stability (precipitation) of formulation; assay type: physicochemical; settings: 0.6 mg/mL in 9.6% polyethylene glycol 300, 0.4% polysorbate 20 and 5% dextrose; listed as Compound 1 Tartrate Salt
Protocol: To determine whether a compound is soluble in a solution, the solution was filtered on 0.2 μM polytetrafluoroethylene filters (Whatman Inc. Clifton, N.J., USA) and the compound concentration in the filtrate was measured by LC/MS and compared to the expected concentration.

Which IC50 [1] does the source give for `COC1=CC(c2cc3ccccc3[nH]2)=N/C1=C\c1[nH]c(C)cc1C` [Compound 1 tartrate] here?
The IC50 was 200 nM.

And the IC50 [2]?
Its IC50 is 500 nM.

What about the IC50 [3] of the same compound?
Its IC50 is 400 nM.

What about the IC50 [4] of the same compound?
Its IC50 is 400 nM.

What about the IC50 [5] of the same compound?
The IC50 was 60 nM.

What about the IC50 [6] of the same compound?
The IC50 was 300 nM.

And the IC50 ([7]; read-out: IC50 of Compound 1 tartrate, HMEC, Normal Breast, ATP levels 72 h post-treatment compared to untreated cells)?
The IC50 was 4000 nM.

What about the “efficacy in decreasing cellular ATP levels in cancer cell lines versus HMEC normal cell line” value ([7]; ten cancer cell lines vs HMEC, various concentrations) of the same compound?
Its value is “greater efficacy in decreasing cellular ATP levels”.

And the IC50 [8]?
Its IC50 is 600 nM.

And the IC50 [9]?
The IC50 was 200 nM.

And the IC50 [10]?
The IC50 was 200 nM.

And the IC50 [11]?
The IC50 was 200 nM.

What about the “lowering of ATP levels in cancer cell lines compared with normal cell lines” value [12] of the same compound?
The value was “significantly more effective at lowering ATP levels”.

And the “reduction in tumor growth compared to vehicle only” value [13]?
The value was “statistically significant (p<0.0001) reduction in tumor growth”.

And the “reduction in tumor growth compared to vehicle only” value ([13]; listed as Compound 1 Tartrate)?
The value was “significantly reduces the human cervical tumors”.

And the T/C value ([13]; day 36)?
The T/C value was 14%.

What about the T/C value ([13]; day 39) of the same compound?
Its T/C value is 22%.

What about the “average tumor size versus vehicle only” value ([13]; days 36 and 39, 4.5 mg/kg) of the same compound?
The value was “significantly (p<0.001) smaller tumors”.

And the body weight change [14]?
Its body weight change is “no significant changes in body weight”.

What about the body weight change ([14]; listed as Compound 1 Tartrate) of the same compound?
The body weight change was “non-significant weight loss”.

And the precipitation of formulation [15]?
The precipitation of formulation was “tends to precipitate one hour after its preparation”.

Source: patent US20050267073A1, “Triheterocyclic compounds, compositions, and methods for treating cancer or viral diseases” (priority 2004, published 2005)
